Measured values as given in patent publication US20180161314A1, “Methods for Treating Hyperuricemia and Related Diseases” (Ardea Biosciences, Inc., priority 2010, published 2018).

Test system: healthy adult subjects
Experiment: Drug 1 / febuxostat cross-over interaction study in healthy adult subjects (Examples 10-12)
Type: in vivo, human
Conditions: for % serum uric acid change, Mean: drug 1 200 mg qd, febuxostat 40 mg qd
Description: Study Objectives • To compare the multiple-dose pharmacokinetics of febuxostat in the absence versus presence of drug 1 co-administration. • To compare the multiple-dose pharmacokinetics of drug 1 in the absence versus presence of febuxostat co-administration. • To measure the effects of drug 1 and febuxostat, both alone and in combination, on serum uric acid concentrations and amounts of urate excreted into urine. • To evaluate the safety and tolerability of multiple-doses of drug 1 and febuxostat, both alone or in combination.
The study is a two or three-panel, placebo-controlled (for drug 1), double-blinded (for drug 1 and matched placebo), randomized, cross-over study with up to 54 healthy adult subjects. Each panel consisting of 18 subjects is sequentially enrolled, starting with Panel 1 (200 mg once daily dose of drug 1 or placebo), followed by Panel 2 (400 mg once daily dose of drug 1 or placebo), and followed by optional Panel 3 (100 mg to 600 mg once daily dose of drug 1 or placebo). The placebo control is included in this study to better assess safety and tolerability and the serum urate lowering effect of drug 1 in combination with febuxostat. Serum urate levels may be influenced by frequent blood draws and meal contents; therefore, the true effect on serum urate levels can be determined by correcting for placebo (subtract serum urate effect in placebo subjects from serum urate effect in active subjects).
Subjects in each panel are randomly assigned to one of two treatment sequences (Sequence A or B) after all Baseline (Day −1) procedures have been completed. Each treatment sequence within a panel consists of 9 subjects randomly assigned to receive drug 1 (6 of 9 subjects) or matching placebo (3 of 9 subjects) in a double-blinded fashion. For each treatment sequence, single-agent drug treatment is administered on Days 1 to 7 (either open-label febuxostat or double-blinded drug 1 or matched placebo by random assignment), followed by combination treatment on Days 8 to 14, and completing with the alternative single-agent drug treatment on Days 15 to 21, as follows (Panel 1 shown in FIG. 2):
Sequence A: Days 1-7: Febuxostat, 40 mg (once daily) • Days 8 to 14: drug 1, 200 mg or placebo in combination with febuxostat (once daily) • Days 15-21: drug 1, 200 mg, or placebo (once daily) Sequence B: Days 1-7: drug 1, 200 mg, or placebo (once daily) • Days 8 to 14: drug 1, 200 mg or placebo in combination with febuxostat (once daily) • Days 15-21: Febuxostat, 40 mg (once daily) […]
Serial blood samples for PK and PD assessments are collected up to 24 hours after dosing on Days 7, 14, and 21. Urine (total catch) for assays of drug 1, creatinine, and uric acid are collected starting on Day −1 (pre-treatment baseline) and after dosing on Days 7, 14, and 21. Final safety assessments are completed when subjects return to the clinic at 7±1 days after discharge from the clinic on Day 22 (Follow-Up visit on Day 29). The total volume of blood collected from each subject is approximately 518 mL.
Screening procedures to determine subject eligibility are performed 28 days before the first dose of study drug (Day 1). A total of up to 54 subjects enrolled in up to 3 panels consisting of 2 sequences each, with 9 subjects per sequence (18 subjects per panel). Subjects withdrawing after dosing are not replaced.
Subjects in Panel 1 receive a 200 mg dose of drug 1 or placebo once daily for 14 days and a 40 mg dose of febuxostat once daily for 14 days. Subjects in Panel 2 receive a 400 mg dose of drug 1 or placebo once daily for 14 days and a 40 mg dose of febuxostat once daily for 14 days. Subjects in Panel 3 receive a 100-600 mg dose of drug 1 or placebo once daily for 14 days and a 40 mg dose of febuxostat once daily for 14 days.
Subjects in Sequence A begin dosing on Day 1 with febuxostat and take their first dose of drug 1 or placebo on Day 8. […]

[1] = Week 1, Drug 1 200 mg alone, febuxostat 40 mg alone
[2] = Week 3, Drug 1 200 mg alone, febuxostat 40 mg alone

O=C(O)CSc1nnc(Br)n1-c1ccc(C2CC2)c2ccccc12 [Drug 1, Sodium 2-(5-bromo-4-(4-cyclopropylnaphthalen-1-yl)-4H-1,2,4-triazol-3-ylthio)acetate]
serum uric acid change from baseline, daily (Day 1, Drug 1 200 mg, FBX 40 mg): −7.4% | serum uric acid change from baseline, daily (Day 1, Drug 1 400 mg): −5.5% | % serum uric acid change, Mean (Day 1): −14.8% | serum uric acid change from baseline, daily (Day 2, Drug 1 200 mg, FBX 40 mg): −22.3% | serum uric acid change from baseline, daily (Day 2, Drug 1 400 mg): −28.9% | % serum uric acid change, Mean (Day 2): −26.3% | serum uric acid change from baseline, daily (Day 3, Drug 1 200 mg, FBX 40 mg): −32.4% | serum uric acid change from baseline, daily (Day 3, Drug 1 400 mg): −33.3% | % serum uric acid change, Mean (Day 3): −34.7% | serum uric acid change from baseline, daily (Day 4, Drug 1 200 mg, FBX 40 mg): −37.7% | serum uric acid change from baseline, daily (Day 4, Drug 1 400 mg): −36.2% | % serum uric acid change, Mean (Day 4): −31.6% | serum uric acid change from baseline, daily (Day 5, Drug 1 200 mg, FBX 40 mg): −36% | serum uric acid change from baseline, daily (Day 5, Drug 1 400 mg): −37.3% | % serum uric acid change, Mean (Day 5): −31.3% | serum uric acid change from baseline, daily (Day 6, Drug 1 200 mg, FBX 40 mg): −39.1% | serum uric acid change from baseline, daily (Day 6, Drug 1 400 mg): −45.6% | % serum uric acid change, Mean (Day 6): −36.2% | serum uric acid change from baseline, daily (Day 7, Drug 1 200 mg, FBX 40 mg): −41.2% | serum uric acid change from baseline, daily (Day 7, Drug 1 400 mg): −48.8% | % serum uric acid change, Mean (Day 7): −40.7% | serum uric acid change from baseline, daily (Day 8, Drug 1 200 mg, FBX 40 mg, alone or combined as labelled): −38.9% | serum uric acid change from baseline, daily (Day 8, Drug 1 400 mg, alone or + FBX 40 mg as labelled): −42.5% | % serum uric acid change, Mean (Day 8): −37.6% | serum uric acid change from baseline, daily (Day 15, Drug 1 200 mg, FBX 40 mg, alone or combined as labelled): −54.8% | serum uric acid change from baseline, daily (Day 15, Drug 1 400 mg, alone or + FBX 40 mg as labelled): −68.1% | serum uric acid change from baseline, daily (Day 16, Drug 1 200 mg alone (week 3), FBX 40 mg alone): −42.5% | serum uric acid change from baseline, daily (Day 16, Drug 1 400 mg alone (week 3)): −53.4% | serum uric acid change from baseline, daily (Day 17, Drug 1 200 mg alone (week 3), FBX 40 mg alone): −37.5% | serum uric acid change from baseline, daily (Day 17, Drug 1 400 mg alone (week 3)): −44.8% | serum uric acid change from baseline, daily (Day 18, Drug 1 200 mg alone (week 3), FBX 40 mg alone): −32.8% | serum uric acid change from baseline, daily (Day 18, Drug 1 400 mg alone (week 3)): −40.7% | serum uric acid change from baseline, daily (Day 19, Drug 1 200 mg alone (week 3), FBX 40 mg alone): −25.9% | serum uric acid change from baseline, daily (Day 19, Drug 1 400 mg alone (week 3)): −33.8% | serum uric acid change from baseline, daily (Day 20, Drug 1 200 mg alone (week 3), FBX 40 mg alone): −33% | serum uric acid change from baseline, daily (Day 20, Drug 1 400 mg alone (week 3)): −40% | serum uric acid change from baseline, daily (Day 21, Drug 1 200 mg alone (week 3), FBX 40 mg alone): −32.4% | serum uric acid change from baseline, daily (Day 21, Drug 1 400 mg alone (week 3)): −46.4% | serum uric acid change from baseline, daily (Day 22, Drug 1 200 mg alone (week 3), FBX 40 mg alone): −32.8% | serum uric acid change from baseline, daily (Day 22, Drug 1 400 mg alone (week 3)): −41.3% | Absolute sUA reduction from baseline, Intraday peak [1]: -3.1 mg/dL | Absolute sUA reduction from baseline, Trough [1]: -2.4 mg/dL | Percent sUA reduction from baseline, Intraday peak [1]: −50.4% | Percent sUA reduction from baseline, Trough [1]: −39.7% | Absolute sUA reduction from baseline, Intraday peak (Week 1, Drug 1 400 mg alone): -4.2 mg/dL | Absolute sUA reduction from baseline, Trough (Week 1, Drug 1 400 mg alone): -3.4 mg/dL | Percent sUA reduction from baseline, Intraday peak (Week 1, Drug 1 400 mg alone): −60.7% | Percent sUA reduction from baseline, Trough (Week 1, Drug 1 400 mg alone): −48.5% | Absolute sUA reduction from baseline, Intraday peak [2]: -2.8 mg/dL | Absolute sUA reduction from baseline, Trough [2]: -2.0 mg/dL | Percent sUA reduction from baseline, Intraday peak [2]: −48.5% | Percent sUA reduction from baseline, Trough [2]: −34.7% | Absolute sUA reduction from baseline, Intraday peak (Week 3, Drug 1 400 mg alone): -3.6 mg/dL | Absolute sUA reduction from baseline, Trough (Week 3, Drug 1 400 mg alone): -2.9 mg/dL | Percent sUA reduction from baseline, Intraday peak (Week 3, Drug 1 400 mg alone): −56.9% | Percent sUA reduction from baseline, Trough (Week 3, Drug 1 400 mg alone): −45.5%
